Experimental data reported in the NIST ThermoML archive (doi:10.1021/acs.jced.9b00846).

Conditions: Liquid, Vibrating tube method

CC(C)CC(C)C [2,4-dimethylpentane]
Conditions	mass density [kg/m3]
283.15 K, 95 kPa	681.7
283.15 K, 4961 kPa	686.3
283.15 K, 9969 kPa	690.9
283.15 K, 14980 kPa	695.1
283.15 K, 19985 kPa	699.1
283.15 K, 25039 kPa	702.9
283.15 K, 30016 kPa	706.5
283.15 K, 35089 kPa	710
283.15 K, 40016 kPa	713.3
283.15 K, 45012 kPa	716.4
283.15 K, 49972 kPa	719.5
283.15 K, 54980 kPa	722.4
283.15 K, 59931 kPa	725.3
283.15 K, 65047 kPa	728.1
288.15 K, 127 kPa	677.3
288.15 K, 4984 kPa	682.2
288.15 K, 9987 kPa	686.8
288.15 K, 14976 kPa	691.2
288.15 K, 19996 kPa	695.3
288.15 K, 24895 kPa	699.2
288.15 K, 30002 kPa	703
288.15 K, 34983 kPa	706.5
288.15 K, 40000 kPa	709.9
288.15 K, 44974 kPa	713.1
288.15 K, 49950 kPa	716.2
288.15 K, 55010 kPa	719.3
288.15 K, 60065 kPa	722.2
288.15 K, 64958 kPa	725
293.15 K, 83 kPa	672.8
293.15 K, 4982 kPa	677.9
293.15 K, 9969 kPa	682.7
293.15 K, 15059 kPa	687.3
293.15 K, 19914 kPa	691.5
293.15 K, 25056 kPa	695.6
293.15 K, 29936 kPa	699.3
293.15 K, 34976 kPa	703
293.15 K, 39994 kPa	706.4
293.15 K, 44992 kPa	709.8
293.15 K, 50030 kPa	713
293.15 K, 54953 kPa	716
293.15 K, 59933 kPa	719
293.15 K, 65045 kPa	721.9
298.15 K, 92 kPa	668.3
298.15 K, 4941 kPa	673.6
298.15 K, 9982 kPa	678.6
298.15 K, 14991 kPa	683.3
298.15 K, 19963 kPa	687.6
298.15 K, 25048 kPa	691.8
298.15 K, 29972 kPa	695.7
298.15 K, 34945 kPa	699.4
298.15 K, 39958 kPa	702.9
298.15 K, 45007 kPa	706.4
298.15 K, 49963 kPa	709.6
298.15 K, 55008 kPa	712.8
298.15 K, 60003 kPa	715.8
298.15 K, 65017 kPa	718.8
303.15 K, 72 kPa	663.8
303.15 K, 4969 kPa	669.3
303.15 K, 9974 kPa	674.5
303.15 K, 14963 kPa	679.3
303.15 K, 19981 kPa	683.9
303.15 K, 25047 kPa	688.2
303.15 K, 29954 kPa	692.1
303.15 K, 34987 kPa	695.9
303.15 K, 39964 kPa	699.6
303.15 K, 45006 kPa	703.1
303.15 K, 49991 kPa	706.4
303.15 K, 55060 kPa	709.7
303.15 K, 59991 kPa	712.8
303.15 K, 65054 kPa	715.8
308.15 K, 100 kPa	659.4
308.15 K, 4987 kPa	665.1
308.15 K, 9965 kPa	670.4
308.15 K, 15040 kPa	675.5
308.15 K, 19960 kPa	680.1
308.15 K, 24964 kPa	684.4
308.15 K, 30076 kPa	688.7
308.15 K, 34985 kPa	692.5
308.15 K, 39972 kPa	696.2
308.15 K, 44972 kPa	699.8
308.15 K, 49955 kPa	703.2
308.15 K, 54996 kPa	706.5
308.15 K, 60063 kPa	709.7
308.15 K, 65021 kPa	712.7
313.15 K, 108 kPa	654.9
313.15 K, 5004 kPa	660.8
313.15 K, 10013 kPa	666.4
313.15 K, 15049 kPa	671.6
313.15 K, 19963 kPa	676.3
313.15 K, 25062 kPa	680.9
313.15 K, 29960 kPa	685
313.15 K, 34942 kPa	689
313.15 K, 40039 kPa	692.9
313.15 K, 45017 kPa	696.6
313.15 K, 50065 kPa	700.1
313.15 K, 54977 kPa	703.4
313.15 K, 59923 kPa	706.6
313.15 K, 64996 kPa	709.7
318.15 K, 110 kPa	650.2
318.15 K, 5061 kPa	656.5
318.15 K, 9957 kPa	662.2
318.15 K, 15002 kPa	667.6
318.15 K, 19980 kPa	672.5
318.15 K, 25013 kPa	677.1
318.15 K, 30045 kPa	681.5
318.15 K, 34965 kPa	685.6
318.15 K, 39938 kPa	689.5
318.15 K, 44971 kPa	693.2
318.15 K, 49989 kPa	696.8
318.15 K, 55009 kPa	700.2
318.15 K, 59952 kPa	703.5
318.15 K, 65056 kPa	706.7
323.15 K, 121 kPa	645.6
323.15 K, 5001 kPa	652.1
323.15 K, 10007 kPa	658.1
323.15 K, 15037 kPa	663.6
323.15 K, 19969 kPa	668.7
323.15 K, 25018 kPa	673.5
323.15 K, 29938 kPa	677.9
323.15 K, 35006 kPa	682.2
323.15 K, 39965 kPa	686.1
323.15 K, 45012 kPa	690
323.15 K, 49970 kPa	693.6
323.15 K, 54953 kPa	697.1
323.15 K, 59965 kPa	700.4
323.15 K, 65022 kPa	703.7
328.15 K, 98 kPa	641
328.15 K, 5010 kPa	647.8
328.15 K, 9934 kPa	653.9
328.15 K, 14950 kPa	659.6
328.15 K, 19968 kPa	664.9
328.15 K, 25011 kPa	669.8
328.15 K, 30040 kPa	674.5
328.15 K, 34952 kPa	678.7
328.15 K, 39959 kPa	682.8
328.15 K, 45017 kPa	686.8
328.15 K, 49935 kPa	690.4
328.15 K, 54941 kPa	694
328.15 K, 59962 kPa	697.4
328.15 K, 65006 kPa	700.8
333.15 K, 92 kPa	636.3
333.15 K, 4968 kPa	643.3
333.15 K, 9977 kPa	649.8
333.15 K, 15014 kPa	655.7
333.15 K, 19986 kPa	661.1
333.15 K, 25001 kPa	666.2
333.15 K, 29959 kPa	670.9
333.15 K, 34922 kPa	675.3
333.15 K, 39972 kPa	679.5
333.15 K, 45064 kPa	683.6
333.15 K, 50006 kPa	687.3
333.15 K, 54975 kPa	691
333.15 K, 59984 kPa	694.5
333.15 K, 64995 kPa	697.8
338.15 K, 107 kPa	631.7
338.15 K, 5007 kPa	639.1
338.15 K, 9978 kPa	645.7
338.15 K, 14968 kPa	651.8
338.15 K, 19968 kPa	657.4
338.15 K, 25042 kPa	662.7
338.15 K, 30018 kPa	667.5
338.15 K, 35052 kPa	672.1
338.15 K, 39990 kPa	676.3
338.15 K, 45087 kPa	680.5
338.15 K, 49968 kPa	684.3
338.15 K, 55044 kPa	688.1
338.15 K, 60031 kPa	691.6
338.15 K, 64997 kPa	695
343.15 K, 98 kPa	626.8
343.15 K, 4944 kPa	634.4
343.15 K, 10008 kPa	641.5
343.15 K, 14958 kPa	647.7
343.15 K, 19959 kPa	653.5
343.15 K, 25045 kPa	658.9
343.15 K, 30012 kPa	663.9
343.15 K, 34980 kPa	668.5
343.15 K, 40024 kPa	672.9
343.15 K, 44956 kPa	677.1
343.15 K, 50037 kPa	681.1
343.15 K, 55010 kPa	684.9
343.15 K, 59979 kPa	688.5
343.15 K, 65088 kPa	692.1
348.15 K, 103 kPa	622
348.15 K, 4998 kPa	630
348.15 K, 9948 kPa	637.2
348.15 K, 15016 kPa	643.8
348.15 K, 19991 kPa	649.7
348.15 K, 25051 kPa	655.3
348.15 K, 29994 kPa	660.3
348.15 K, 34970 kPa	665.1
348.15 K, 39979 kPa	669.6
348.15 K, 45063 kPa	673.9
348.15 K, 50024 kPa	678
348.15 K, 54974 kPa	681.8
348.15 K, 59994 kPa	685.5
353.15 K, 1014 kPa	618.8
353.15 K, 5010 kPa	625.6
353.15 K, 9950 kPa	633
353.15 K, 15037 kPa	639.9
353.15 K, 19996 kPa	646
353.15 K, 25024 kPa	651.7
353.15 K, 29983 kPa	656.9
353.15 K, 34950 kPa	661.8
353.15 K, 40060 kPa	666.5
353.15 K, 45017 kPa	670.8
353.15 K, 49987 kPa	674.9
353.15 K, 54976 kPa	678.9
353.15 K, 59989 kPa	682.7
358.15 K, 5026 kPa	621
358.15 K, 9954 kPa	628.7
358.15 K, 15017 kPa	635.8
358.15 K, 19926 kPa	642
358.15 K, 25014 kPa	647.9
358.15 K, 30045 kPa	653.4
358.15 K, 35004 kPa	658.3
358.15 K, 40013 kPa	663.1
358.15 K, 44988 kPa	667.5
358.15 K, 49996 kPa	671.7
358.15 K, 55037 kPa	675.8
358.15 K, 60020 kPa	679.6
358.15 K, 65016 kPa	683.3
363.15 K, 4947 kPa	616.2
363.15 K, 10031 kPa	624.5
363.15 K, 15019 kPa	631.7
363.15 K, 19970 kPa	638.2
363.15 K, 25122 kPa	644.3
363.15 K, 30059 kPa	649.8
363.15 K, 35064 kPa	654.9
363.15 K, 40055 kPa	659.8
363.15 K, 45078 kPa	664.3
363.15 K, 49933 kPa	668.5
363.15 K, 54989 kPa	672.7
363.15 K, 59992 kPa	676.6
363.15 K, 65058 kPa	680.3
